{"source": "PubChem BioAssay AID2060901", "about": "(Molecular Pharmacology Branch, DTP, NCI, 2025);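 note: spheroids exposed to compounds for 7 days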;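 for viability, T/C: 100% = DMSO vehicle control viability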", "tested_on": "422866-222-R5-J1-PDC complex spheroids viability", "assay": "Anticancer human tumor 422866-222-R5-J1-PDC patient-derived pancreatic adenocarcinoma cell line growth inhibition [RAS]", "settings": "for IC50: curve of first compound; for viability, T/C: stronger effect = lower value", "method_in_brief": "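Multi-cell-type spheroids: tumor cells plus HUVEC endothelial cells and mesenchymal stem cells. RAS-pathway inhibitors were combined with targeted agents, each dosed in half-log steps down from clinical Cmax, or from 10 microM when Cmax was unknown.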"}
{"smiles": "CC(C)NCC(C(=O)N1CCN(c2ncnc3c2C(C)CC3O)CC1)c1ccc(Cl)cc1", "note": "(centres undefined) + C=CC(=O)N1CCN(c2nc(OCC3CCCN3C)nc3c(F)c(-c4nc(N)cc(C)c4C(F)(F)F)c(Cl)cc23)C(C)C1", "values": [{"measurement": "IC50", "setting": "second compound 0.00316 µM", "value": "< 31.6", "unit": "nM"}, {"measurement": "IC50", "setting": "second compound 0.01 µM", "value": "< 31.6", "unit": "nM"}, {"measurement": "IC50", "setting": "second compound 0.0316 µM", "value": "< 31.6", "unit": "nM"}, {"measurement": "IC50", "setting": "second compound 0.1 µM", "value": "< 31.6", "unit": "nM"}, {"measurement": "IC50", "setting": "second compound 0.316 µM", "value": "< 31.6", "unit": "nM"}, {"measurement": "IC50", "setting": "second compound 1 µM", "value": "< 31.6", "unit": "nM"}, {"measurement": "viability, T/C", "setting": "second compound 0.00316 µM, first compound 0.0316 µM", "value": 27.2, "unit": "%"}, {"measurement": "viability, T/C", "setting": "second compound 0.00316 µM, first compound 0.1 µM", "value": 32.1, "unit": "%"}, {"measurement": "viability, T/C", "setting": "second compound 0.00316 µM, first compound 0.316 µM", "value": 19.7, "unit": "%"}, {"measurement": "viability, T/C", "setting": "second compound 0.00316 µM, first compound 1 µM", "value": 17, "unit": "%"}, {"measurement": "viability, T/C", "setting": "second compound 0.00316 µM, first compound 3.16 µM", "value": 16.7, "unit": "%"}, {"measurement": "viability, T/C", "setting": "second compound 0.00316 µM, first compound 10 µM", "value": 16.7, "unit": "%"}, {"measurement": "viability, T/C", "setting": "second compound 0.01 µM, first compound 0.0316 µM", "value": 23.3, "unit": "%"}, {"measurement": "viability, T/C", "setting": "second compound 0.01 µM, first compound 0.1 µM", "value": 24.8, "unit": "%"}, {"measurement": "viability, T/C", "setting": "second compound 0.01 µM, first compound 0.316 µM", "value": 17.9, "unit": "%"}, {"measurement": "viability, T/C", "setting": "second compound 0.01 µM, first compound 1 µM", "value": 12.2, "unit": "%"}, {"measurement": "viability, T/C", "setting": "second compound 0.01 µM, first compound 3.16 µM", "value": 12.6, "unit": "%"}, {"measurement": "viability, T/C", "setting": "second compound 0.01 µM, first compound 10 µM", "value": 13.3, "unit": "%"}, {"measurement": "viability, T/C", "setting": "second compound 0.0316 µM, first compound 0.0316 µM", "value": 27.9, "unit": "%"}, {"measurement": "viability, T/C", "setting": "second compound 0.0316 µM, first compound 0.1 µM", "value": 22, "unit": "%"}, {"measurement": "viability, T/C", "setting": "second compound 0.0316 µM, first compound 0.316 µM", "value": 14.4, "unit": "%"}, {"measurement": "viability, T/C", "setting": "second compound 0.0316 µM, first compound 1 µM", "value": 14.9, "unit": "%"}, {"measurement": "viability, T/C", "setting": "second compound 0.0316 µM, first compound 3.16 µM", "value": 14.2, "unit": "%"}, {"measurement": "viability, T/C", "setting": "second compound 0.0316 µM, first compound 10 µM", "value": 14.3, "unit": "%"}, {"measurement": "viability, T/C", "setting": "second compound 0.1 µM, first compound 0.0316 µM", "value": 21.6, "unit": "%"}, {"measurement": "viability, T/C", "setting": "second compound 0.1 µM, first compound 0.1 µM", "value": 19.2, "unit": "%"}, {"measurement": "viability, T/C", "setting": "second compound 0.1 µM, first compound 0.316 µM", "value": 15.2, "unit": "%"}, {"measurement": "viability, T/C", "setting": "second compound 0.1 µM, first compound 1 µM", "value": 12, "unit": "%"}, {"measurement": "viability, T/C", "setting": "second compound 0.1 µM, first compound 3.16 µM", "value": 13, "unit": "%"}, {"measurement": "viability, T/C", "setting": "second compound 0.1 µM, first compound 10 µM", "value": 12.8, "unit": "%"}, {"measurement": "viability, T/C", "setting": "second compound 0.316 µM, first compound 0.0316 µM", "value": 24.1, "unit": "%"}, {"measurement": "viability, T/C", "setting": "second compound 0.316 µM, first compound 0.1 µM", "value": 16.4, "unit": "%"}, {"measurement": "viability, T/C", "setting": "second compound 0.316 µM, first compound 0.316 µM", "value": 14.8, "unit": "%"}, {"measurement": "viability, T/C", "setting": "second compound 0.316 µM, first compound 1 µM", "value": 13.6, "unit": "%"}, {"measurement": "viability, T/C", "setting": "second compound 0.316 µM, first compound 3.16 µM", "value": 12.7, "unit": "%"}, {"measurement": "viability, T/C", "setting": "second compound 0.316 µM, first compound 10 µM", "value": 16.6, "unit": "%"}, {"measurement": "viability, T/C", "setting": "second compound 1 µM, first compound 0.0316 µM", "value": 23.6, "unit": "%"}, {"measurement": "viability, T/C", "setting": "second compound 1 µM, first compound 0.1 µM", "value": 15.2, "unit": "%"}, {"measurement": "viability, T/C", "setting": "second compound 1 µM, first compound 0.316 µM", "value": 16.7, "unit": "%"}, {"measurement": "viability, T/C", "setting": "second compound 1 µM, first compound 1 µM", "value": 12.5, "unit": "%"}, {"measurement": "viability, T/C", "setting": "second compound 1 µM, first compound 3.16 µM", "value": 13.9, "unit": "%"}, {"measurement": "viability, T/C", "setting": "second compound 1 µM, first compound 10 µM", "value": 12.6, "unit": "%"}]}
{"smiles": "CC1(C)CCC(Nc2ncc(C(F)(F)F)c(-c3c[nH]c4c(P(C)(C)=O)c(C#N)ccc34)n2)CN1", "note": "(centres undefined) + C#Cc1c(F)ccc2cc(O)cc(-c3ncc4c(N5CC6CCC(C5)N6)nc(OCC56CCCN5CC(F)C6)nc4c3F)c12", "values": [{"measurement": "IC50", "setting": "second compound 0.0316 µM", "value": "> 300", "unit": "nM"}, {"measurement": "IC50", "setting": "second compound 0.1 µM", "value": 91.8, "unit": "nM"}, {"measurement": "IC50", "setting": "second compound 0.316 µM", "value": 7.9, "unit": "nM"}, {"measurement": "IC50", "setting": "second compound 1 µM", "value": 1.6, "unit": "nM"}, {"measurement": "IC50", "setting": "second compound 3.16 µM", "value": "< 0.949", "unit": "nM"}, {"measurement": "IC50", "setting": "second compound 10 µM", "value": "< 0.949", "unit": "nM"}, {"measurement": "viability, T/C", "setting": "second compound 0.0316 µM, first compound 0.000949 µM", "value": 112, "unit": "%"}, {"measurement": "viability, T/C", "setting": "second compound 0.0316 µM, first compound 0.003 µM", "value": 83.3, "unit": "%"}, {"measurement": "viability, T/C", "setting": "second compound 0.0316 µM, first compound 0.00949 µM", "value": 80.6, "unit": "%"}, {"measurement": "viability, T/C", "setting": "second compound 0.0316 µM, first compound 0.03 µM", "value": 55.6, "unit": "%"}, {"measurement": "viability, T/C", "setting": "second compound 0.0316 µM, first compound 0.0949 µM", "value": 62, "unit": "%"}, {"measurement": "viability, T/C", "setting": "second compound 0.0316 µM, first compound 0.3 µM", "value": 56.4, "unit": "%"}, {"measurement": "viability, T/C", "setting": "second compound 0.1 µM, first compound 0.000949 µM", "value": 100, "unit": "%"}, {"measurement": "viability, T/C", "setting": "second compound 0.1 µM, first compound 0.003 µM", "value": 68, "unit": "%"}, {"measurement": "viability, T/C", "setting": "second compound 0.1 µM, first compound 0.00949 µM", "value": 73.8, "unit": "%"}, {"measurement": "viability, T/C", "setting": "second compound 0.1 µM, first compound 0.03 µM", "value": 38.2, "unit": "%"}, {"measurement": "viability, T/C", "setting": "second compound 0.1 µM, first compound 0.0949 µM", "value": 47.5, "unit": "%"}, {"measurement": "viability, T/C", "setting": "second compound 0.1 µM, first compound 0.3 µM", "value": 55.6, "unit": "%"}, {"measurement": "viability, T/C", "setting": "second compound 0.316 µM, first compound 0.000949 µM", "value": 64.2, "unit": "%"}, {"measurement": "viability, T/C", "setting": "second compound 0.316 µM, first compound 0.003 µM", "value": 66.4, "unit": "%"}, {"measurement": "viability, T/C", "setting": "second compound 0.316 µM, first compound 0.00949 µM", "value": 45.5, "unit": "%"}, {"measurement": "viability, T/C", "setting": "second compound 0.316 µM, first compound 0.03 µM", "value": 45.1, "unit": "%"}, {"measurement": "viability, T/C", "setting": "second compound 0.316 µM, first compound 0.0949 µM", "value": 52.6, "unit": "%"}, {"measurement": "viability, T/C", "setting": "second compound 0.316 µM, first compound 0.3 µM", "value": 45.3, "unit": "%"}, {"measurement": "viability, T/C", "setting": "second compound 1 µM, first compound 0.000949 µM", "value": 54.1, "unit": "%"}, {"measurement": "viability, T/C", "setting": "second compound 1 µM, first compound 0.003 µM", "value": 44.1, "unit": "%"}, {"measurement": "viability, T/C", "setting": "second compound 1 µM, first compound 0.00949 µM", "value": 40.3, "unit": "%"}, {"measurement": "viability, T/C", "setting": "second compound 1 µM, first compound 0.03 µM", "value": 42.7, "unit": "%"}, {"measurement": "viability, T/C", "setting": "second compound 1 µM, first compound 0.0949 µM", "value": 34.5, "unit": "%"}, {"measurement": "viability, T/C", "setting": "second compound 1 µM, first compound 0.3 µM", "value": 34.6, "unit": "%"}, {"measurement": "viability, T/C", "setting": "second compound 3.16 µM, first compound 0.000949 µM", "value": 27, "unit": "%"}, {"measurement": "viability, T/C", "setting": "second compound 3.16 µM, first compound 0.003 µM", "value": 37.7, "unit": "%"}, {"measurement": "viability, T/C", "setting": "second compound 3.16 µM, first compound 0.00949 µM", "value": 28.4, "unit": "%"}, {"measurement": "viability, T/C", "setting": "second compound 3.16 µM, first compound 0.03 µM", "value": 28.8, "unit": "%"}, {"measurement": "viability, T/C", "setting": "second compound 3.16 µM, first compound 0.0949 µM", "value": 29.1, "unit": "%"}, {"measurement": "viability, T/C", "setting": "second compound 3.16 µM, first compound 0.3 µM", "value": 26.9, "unit": "%"}, {"measurement": "viability, T/C", "setting": "second compound 10 µM, first compound 0.000949 µM", "value": 24.2, "unit": "%"}, {"measurement": "viability, T/C", "setting": "second compound 10 µM, first compound 0.003 µM", "value": 25.1, "unit": "%"}, {"measurement": "viability, T/C", "setting": "second compound 10 µM, first compound 0.00949 µM", "value": 24.1, "unit": "%"}, {"measurement": "viability, T/C", "setting": "second compound 10 µM, first compound 0.03 µM", "value": 27.8, "unit": "%"}, {"measurement": "viability, T/C", "setting": "second compound 10 µM, first compound 0.0949 µM", "value": 27.9, "unit": "%"}, {"measurement": "viability, T/C", "setting": "second compound 10 µM, first compound 0.3 µM", "value": 31.2, "unit": "%"}]}
